# According to patent US20240216320A1, “COMPOSITIONS AND METHODS FOR TREATING SICKLE CELL DISEASE” (Augusta University Research Institute, Inc., priority 2019, published 2024):
# Tests used:
# [1] = tested on: γ-globin mRNA in K562 cells; assay: γ-globin transcription by RT-qPCR in K562 cells; format: cell-based; conditions: 48 h
# Protocol: Initial studies were conducted in K562 cells to determine the ability of AN-233 to induce γ-globin transcription and HbF expression. K562 cells display characteristics of erythroid cells including expression of the ε, γ and α globin genes and these cells are useful for initial drug screening and discovery of potential HbF inducers.
# K562 cells were treated with AN-233 for 48 h and globin gene transcription was analyzed by RT-qPCR. […]
# (§1) K562 cells were cultured in Iscove's Modified Dulbecco medium (IMDM) with 10% fetal bovine serum, penicillin (100 U/mL) and streptomycin (0.1 mg/mL). Drug inductions for K562 cells were conducted for 48 h and cell viability evaluated with 0.4% Trypan blue exclusion. Cell counts were performed a dual chamber apparatus and the percentage viability obtained using an Automated Cell Counter (Bio-Rad).
# Total RNA was extracted from cells using Trizol (Ambion, Carlsbad CA) and analyzed by RT-qPCR as previously published by our group. Gene-specific primers were used to quantify mRNA levels for γ-globin, β-globin and internal control glyceraldehyde-3-phosphate de-hydrogenase (GAPDH). All mRNA levels were normalized to GAPDH before analysis.
# HbF in K562 cells [2] = assay: Western blot of HbF levels in K562 cells; format: cell-based; conditions: 48 h, AN-233 dose-dependent
# Protocol: as §1
# (§2) Western blot analysis was performed using whole cell lysates generated with RIPA buffer (ThermoScientific, Rockford, IL) supplemented with proteinase and phosphatase inhibitor cocktails. For histone acetylation studies, nuclear lysates were prepared by suspending cells in buffer containing 20 mM HEPES, pH 7.9, 50 mM KCl, 420 mM NaCl, 0.1 mM EDTA, 1 mM DTT, 10% glycerol and protease inhibitor mixture for 30 min, followed by centrifugation. Antibodies against HbF (51-7), HbA (37-8), and Tata binding protein (TBP; N-12) were purchased from Santa Cruz Biotechnology (Dallas TX); antibodies against β-actin (A5316) and rabbit IgG (18140) were purchased from Sigma (St. Louis MO). Acetylated histone H3 (AcH3; 06-599) and AcH4 (06-866) antibodies were purchased from Millipore (Burlington, MA).
# [3] = tested on: intracellular heme in K562 cells; assay: QuantiChrom heme quantitation assay in K562 cells; format: cell-based; conditions: for heme levels in control experiments: ALA 0.5 and 2.0 mM, hemin 75 μM
# Protocol: The total cellular heme content was determined using the QuantiChrom™ Heme Assay Kit (DIHM-250, BioAssay Systems, Hayward, CA) per the manufacturer's instructions. Briefly, 25 μL of cellular lysate was mixed with 100 μL of detection reagent. The mixture was incubated at room temperature for 5 min followed by measuring the absorbance at 400 nm on a microplate reader. The total heme concentration was calculated based on a formula provided by the manufacturer: Heme concentration=(OD^sample−OD^blank)/(OD^calibrator−OD^blank)×125× dilution factor. This value was normalized by total protein in each sample.
# [4] = tested on: HbF in patients with β-thalassemia; conditions: cited from earlier work
# HbF in K562 cells [5] = assay: HbF positive cells (F-cells) by flow cytometry in K562 cells; format: cell-based
# Protocol: as §1
# (§3) To measure percent HbF positive cells (F-cells), K562 cells and erythroid precursors were fixed with 1% formaldehyde, permeabilized with ice-cold acetone:methanol (4:1 ratio) and stained with fluorescein isothiocyanate (FITC) anti-HbF antibody (ab19365, Abcam Cambridge MA) and isotype control IgG antibody (MBS524511, MyBioSource, San Diego CA) was used to detect non-specific staining. The F-cells levels and HbF protein levels measured by mean fluorescence intensity (MFI) were analyzed on an LSR-II flow cytometer (BD Biosciences, San Jose CA) and FlowJo analysis to generate quantitative data.
# [6] = tested on: Heme-regulated inhibitor (HRI) kinase; assay: Western blot of HRI in K562 cells; format: cell-based; conditions: dose-dependent, maximal
# Protocol: as §2
# (§4) Since the biosynthesis of heme prosthetic group requires ALA as a precursor and AN-233 is hydrolyzed to BA and ALA, it was next determined whether heme levels are altered after treatments of K562 cells. Using a colorimetric quantitative assay, a 1.5-fold and 1.8-fold increase (p<0.05) in intracellular heme was observed after 0.25 mM and 0.5 mM AN-233 treatment respectively (FIG. 2A). […] Therefore, K562 cells were treated with AN-233 and phosphorylated and total HRI and eIF2αP levels were measured. […]
# [7] = tested on: eIF2αP (eukaryotic translation initiation factor 2α phosphorylation); assay: Western blot of eIF2αP in K562 cells; format: cell-based; conditions: dose-dependent, maximal
# Protocol: as §2, §4
# p38 MAPK = assay: Western blot of phosphorylated p38 MAPK in K562 cells; format: cell-based; conditions: 0.25 mM
# Protocol: as §2
# The second active metabolite of AN-233 hydrolysis is BA. It was previously reported that HbF induction by BA occurs through p38 MAPK activation.
# [8] = tested on: HbF in sickle erythroid precursors; assay: F-cells and HbF MFI by flow cytometry in sickle erythroid precursors; format: cell-based, human
# Protocol: (§5) For primary cultures, erythroid precursors were generated from peripheral blood mononuclear cells isolated from discard blood of sickle patients under an IRB exempt protocol. These cells were cultured in a two-phase liquid culture system previously published (Li, B., et al., Haematologica 103:e384-e387 (2018)).
# (§6) During phase 1, cells were grown in Iscove's Dulecco Media with 15% fetal bovine serum, 15% human AB serum, 10 ng/mL interleukin-3, 50 ng/mL stem cell factor and 2 IU/mL of erythropoietin (Peprotech, Rocky Hill NJ). Phase 2 of culture initiated on day 7 with a similar medium without stem cell factor and interleukin-3. On day 8, erythroid precursors were treated with AN-233 (0.125 mM and 0.25 mM), ethanol (EtOH; […] and 0.016%) and the positive control HU (100 μM) for 48 h and harvested for the various analyses.
# as §3
# [9] = tested on: HbF in sickle erythroid precursors; assay: Western blot of HbF in sickle erythroid precursors; format: cell-based, human
# Protocol: as §5, §6
# (§7) Western blot analysis was performed using whole cell lysates generated with RIPA buffer (ThermoScientific, Rockford, IL) supplemented with proteinase and phosphatase inhibitor cocktails. For histone acetylation studies, nuclear lysates were prepared by suspending cells in buffer containing 20 mM HEPES, pH 7.9, 50 mM KCl, 420 mM NaCl, 0.1 mM EDTA, 1 mM DTT, 10% glycerol and protease inhibitor mixture for 30 min, followed by centrifugation. […]
# [10] = tested on: HbS in sickle erythroid precursors; assay: Western blot of HbS in sickle erythroid precursors; format: cell-based, human; conditions: 0.25 mM
# Protocol: as §5, §6, §7
# [11] = tested on: sickle erythroid precursors; assay: In vitro sickling assay under 2% oxygen; format: cell-based, human
# Protocol: In vitro sickling studies were conducted as previously published by our group (Zhu, X., et al., Blood, 131:558-562 (2018)). Briefly, after drug inductions of sickle erythroid pre-cursors for 48 h, cells were incubated in 2% oxygen overnight and then fixed with 2% formaldehyde. Erythroid morphology was evaluated microscopically and the number of sickled cells per high power field manually counted for 1000 cells, per triplicates per condition.
# [12] = tested on: acetylated histone H3 (AcH3); assay: Western blot of acetylated histone H3 in nuclear lysates of sickle erythroid cells; format: cell-based, human
# Protocol: as §2
# γ-globin promoter = assay: ChIP assay, histone acetylation in γ-globin promoter; format: cell-based, human; conditions: for enrichment for AcH3 in the γ-globin promoter: compared to IgG control, dose-dependent
# Protocol: (§8) ChIP assay was performed as previously published by our group with immunoprecipitations for AcH3, AcH4 and TBP antibodies (Santa Cruz Biotechnology) and rabbit IgG as a control. Primers used to quantify in vivo chromatin modifications are as follows: locus control region DNase I hypersensitive site 2 (LCR-HS2) forward […] (SEQ ID NO:1) and reverse […] (SEQ ID NO:2), γ-globin promoter (forward CTGAAACGGTCCCTGGCTA (SEQ ID NO:3), reverse […] (SEQ ID NO:4)), and β-globin promoter (forward […] (SEQ ID NO:5), reverse […] (SEQ ID NO:6)).
# LCR-HS2 = assay: ChIP assay, histone acetylation in LCR-HS2; format: cell-based, human
# Protocol: as §8
# β-globin gene promoter = assay: ChIP assay, histone acetylation in β-globin gene promoter; format: cell-based, human
# Protocol: as §8
# [13] = tested on: HbF in β-YAC transgenic mice; assay: HbF induction (F-cells, MFI) in β-YAC transgenic mice; format: in vivo, mouse
# β-YAC transgenic mice = assay: Toxicity, body weight, blood counts and reticulocytes in β-YAC transgenic mice
# Protocol: The β-YAC is a transgenic mouse model containing the full-length 81 kb human β-globin gene locus including the LCR and surrounding region. The five functional human globin genes 5′-ε-Gγ-Aγ-[…]-β-3′ are present and undergo normal developmental regulation with the γ-globin gene silenced shortly after birth. β-YAC mice (5-6 months old) were administered AN-233 suspended in water (200 or 300 mg/kg) 5 days/week for 4 weeks by intraperitoneal injection; five mice per group with 3 males and 2 females were treated. Hydroxyurea (100 mg/kg) was included as a positive control. Blood was collected by tail bleed at week 0, 2 and 4 and analyzed for automated complete blood counts with differential using a Micros 60 machine (HORIBA Medical/ABX Diagnostics). The level of F-cells and MFI were performed by flow cytometry. For reticulocyte counts, whole blood was stained with acridine orange and flow cytometry performed on an LSR-II flow cytometer (BD Biosciences).
# anemic C57BL mouse model = conditions: cited from earlier work
compound,measurement,setting,value
"NCC(=O)CCC(=O)O [ALA, δ-aminolevulinate]",increase in γ-globin mRNA levels,[1]; 0.125 mM,1.5 fold
same,increase in HbF by Western blot,HbF in K562 cells [2],6 fold
same,heme levels in control experiments,[3],increased heme levels
CCC(C)(C)C(=O)[O-].[Na+] [sodium dimethylbutyrate],patients with HbF induction,[4],70 % of patients
"CCCC(=O)OC(C)OC(=O)CCC(=O)CN (stereo not drawn) [AN-233, 1-(butyryloxy)ethyl-5-amino-4-oxopentanoate]",increase in γ-globin mRNA levels,[1]; 0.125 mM,1.8 fold
same,increase in γ-globin mRNA levels,[1]; 0.25 mM,2.0 fold
same,F-cells,"HbF in K562 cells [5]; K562 cells, 0.125 and 0.25 mM, 48 h, maximum, 10% in EtOH treated controls",19%
same,increase in intracellular heme,[3]; 0.25 mM,1.5 fold
same,increase in intracellular heme,[3]; 0.5 mM,1.8 fold
same,decrease in HRI,[6],52%
same,decrease in eIF2αP levels,[7],50%
same,increase in phosphorylated p38 MAPK,p38 MAPK,1.4 fold
same,increase in F-cells,"[8]; sickle erythroid precursors, 0.125 and 0.25 mM, 48 h, maximal",2 fold
same,F-cells,"[8]; sickle erythroid precursors, 0.125 and 0.25 mM, maximal, from 16.31%",32.5%
same,increase in HbF measured by MFI,"[8]; sickle erythroid precursors, 48 h",1.5 fold
same,increase in HbF protein by Western blot,"[9]; sickle erythroid precursors, 0.25 mM",2.6 fold
same,HbS expression by Western blot,[10],without changing HbS expression
same,reduction of the percentage of sickled erythroid precursors,[11]; 2% oxygen overnight,up to 56%
same,global AcH3 levels in nuclear lysates,[12],increased global AcH3 levels
same,AcH4 levels in the γ-globin promoter,γ-globin promoter; ChIP,increased
same,enrichment for AcH3 in the γ-globin promoter,γ-globin promoter; first (lower) value,12 fold
same,enrichment for AcH3 in the γ-globin promoter,γ-globin promoter; second (higher) value,30 fold
same,increase in AcH3 in LCR-HS2,LCR-HS2,12.5 fold
same,increase in AcH4 in LCR-HS2,LCR-HS2,5 fold
same,histone acetylation at the β-globin gene promoter,β-globin gene promoter,no significant changes
same,increase in F-cells,[13]; 200 mg/kg ip,3.4 fold
same,increase in HbF measured by MFI,[13]; 200 mg/kg ip,1.4 fold
same,F-cells,"[13]; 200 mg/kg ip, from 15.46%",52.5%
same,HbF measured by MFI,"[13]; 200 mg/kg ip, from 588 units",824 units
same,increase in F-cells,[13]; 300 mg/kg ip,4.5 fold
same,increase in HbF measured by MFI,[13]; 300 mg/kg ip,1.7 fold
same,F-cells,"[13]; 300 mg/kg ip, from 13.5%",60.6%
same,HbF measured by MFI,"[13]; 300 mg/kg ip, from 447 units",760 units
same,anti-proliferative effects on erythropoiesis,"β-YAC transgenic mice; mouse, in vivo",without observing anti-proliferative effects
same,increase in reticulocytes,"β-YAC transgenic mice; β-YAC mice, 300 mg/kg ip, week 4, p=0.01",1.8 fold
same,toxicity,"anemic C57BL mouse model; anemic C57BL mice, oral, 4 weeks, up to 400 mg/kg",without toxicity
same,hemoglobin levels,"anemic C57BL mouse model; anemic C57BL mice, oral, 4 weeks",improved
same,histone acetylation in spleen tissue,anemic C57BL mouse model; tissue harvested 4 to 6 h after one oral dose,histone hyper-acetylation
hemin [reference compound],heme levels in control experiments,[3],increased heme levels
"NC(=O)NO [HU, hydroxyurea]",γ-globin mRNA induction,[1]; HU control,1.7 fold
same,"HbF measured by MFI, compared with AN-233","[8]; sickle erythroid precursors, HU 100 μM",comparable
same,"anti-sickling effect, compared with AN-233","[11]; 2% oxygen overnight, HU",similar
same,"blood counts (Hb, hematocrit, white blood cells, platelets)","β-YAC transgenic mice; β-YAC mice, 4-week treatment, AN-233 at both doses, HU 100 mg/kg","decreased total Hb, hematocrit, and white blood cell and platelet counts"
same,increase in reticulocytes,"β-YAC transgenic mice; β-YAC mice, HU 100 mg/kg ip, week 4, p=0.002",1.9 fold
same,body weights,"β-YAC transgenic mice; β-YAC mice, ip, 4 weeks of treatment, all groups",normal body weights were maintained
"CCCC(=O)O [BA, butyric acid]",increase in γ-globin mRNA levels,[1]; 0.125 mM,3 fold
same,increase in HbF by Western blot,HbF in K562 cells [2],2 fold
"C[S+]([O-])c1ccc(-c2nc(-c3ccncc3)c(-c3ccc(F)cc3)[nH]2)cc1 (stereo not drawn) [SB203580, reference compound]",decrease in F-cell levels,HbF in K562 cells [5]; pretreatment with SB203580 10 μM followed by 0.25 mM AN-233,30%
same,effect of pretreatment on F-cells and MFI,"[8]; SB203580 pretreatment, at both AN-233 concentrations",reduced F-cells and MFI levels
same,effect on AN-233 HbF protein increase by Western blot,[9]; SB203580 treatment with 0.25 mM AN-233,inhibited
same,sickled erythroid progenitor levels after pretreatment,"[11]; SB203580 pretreatment before AN-233, 2% oxygen",higher sickled erythroid progenitor levels
